Values after ≈ are worked out from the molar mass of the structure shown. Where two headings read alike, the source gives them in different places.

One assay has as its system O. anthropi urease (OAU). It counts as biochemical, Brucella anthropi.
Assay [1] has as its system H. pylori. Kind of assay: microbe, parasite or virus in culture. The following applies: Helicobacter pylori, 72 h, read-out: H. pylori (MIC) µg/ml.
For assay [2], the target named is T1, jack bean urease (JBU) (Canavalia ensiformis, UniProt P07374). Kind of assay: tandem-well NH3 assay, salicylic acid-hypochlorite. It counts as biochemical.
For assay [3], the target named is T2, H. pylori urease (HPU) (Helicobacter pylori, UniProt P69996). Kind of assay: cell-based.
Assay [4] relates to H. pylori. Put plainly: microbe, parasite or virus in culture. As to conditions: Helicobacter pylori, 72 h, read-out: H. pylori (MIC) µM.
Assay [5] addresses T2, H. pylori urease (HPU). Kind of assay: tandem-well NH3 assay, Nessler's reagent, crude extract. It counts as biochemical.
The next assay concerns the target T3, human CBS (hCBS) (Homo sapiens, UniProt P35520).
T3 sequence (P35520 1-551): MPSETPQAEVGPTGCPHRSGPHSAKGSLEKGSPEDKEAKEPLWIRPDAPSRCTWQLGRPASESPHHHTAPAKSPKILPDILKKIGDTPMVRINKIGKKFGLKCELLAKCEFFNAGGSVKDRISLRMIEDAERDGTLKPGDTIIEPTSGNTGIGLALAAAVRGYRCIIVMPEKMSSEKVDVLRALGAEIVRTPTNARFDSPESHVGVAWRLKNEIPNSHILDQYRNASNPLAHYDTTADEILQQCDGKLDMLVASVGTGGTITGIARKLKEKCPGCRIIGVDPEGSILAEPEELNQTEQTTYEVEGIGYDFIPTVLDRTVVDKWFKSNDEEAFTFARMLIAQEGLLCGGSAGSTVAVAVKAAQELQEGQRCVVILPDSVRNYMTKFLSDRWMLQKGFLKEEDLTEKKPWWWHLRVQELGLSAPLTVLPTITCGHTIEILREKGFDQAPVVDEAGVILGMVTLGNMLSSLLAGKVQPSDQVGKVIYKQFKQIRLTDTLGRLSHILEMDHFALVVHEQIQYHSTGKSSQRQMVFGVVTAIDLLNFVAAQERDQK
Put plainly: tandem-well H2S assay. In kind it is biochemical.

Assay [6] addresses T1, jack bean urease (JBU). Kind of assay: enzyme kinetics, tandem-well NH3 assay. It counts as biochemical.
The target in the next assay is human CSE (hCSE) (Homo sapiens, UniProt P32929). Kind of assay: tandem-well H2S assay. In kind it is biochemical.
Assay [7] has as its target T1, jack bean urease (JBU). Kind of assay: SPR, Biacore T200, JBU immobilised on CM5 chip. In kind it is binding.
Assay [8] concerns the target T1, jack bean urease (JBU). Kind of assay: enzyme kinetics, tandem-well NH3 assay. It counts as biochemical. As to conditions: urea 12.5-200 mM; noncompetitive, covalent, allosteric (Cys313).
Where [9] appears, read: 25 mM urea, 100 μM NiCl2, 50 mM phosphate pH 7.4, 37 °C, 30 min preincubation.

T1 sequence (P07374 whole entry, looked up): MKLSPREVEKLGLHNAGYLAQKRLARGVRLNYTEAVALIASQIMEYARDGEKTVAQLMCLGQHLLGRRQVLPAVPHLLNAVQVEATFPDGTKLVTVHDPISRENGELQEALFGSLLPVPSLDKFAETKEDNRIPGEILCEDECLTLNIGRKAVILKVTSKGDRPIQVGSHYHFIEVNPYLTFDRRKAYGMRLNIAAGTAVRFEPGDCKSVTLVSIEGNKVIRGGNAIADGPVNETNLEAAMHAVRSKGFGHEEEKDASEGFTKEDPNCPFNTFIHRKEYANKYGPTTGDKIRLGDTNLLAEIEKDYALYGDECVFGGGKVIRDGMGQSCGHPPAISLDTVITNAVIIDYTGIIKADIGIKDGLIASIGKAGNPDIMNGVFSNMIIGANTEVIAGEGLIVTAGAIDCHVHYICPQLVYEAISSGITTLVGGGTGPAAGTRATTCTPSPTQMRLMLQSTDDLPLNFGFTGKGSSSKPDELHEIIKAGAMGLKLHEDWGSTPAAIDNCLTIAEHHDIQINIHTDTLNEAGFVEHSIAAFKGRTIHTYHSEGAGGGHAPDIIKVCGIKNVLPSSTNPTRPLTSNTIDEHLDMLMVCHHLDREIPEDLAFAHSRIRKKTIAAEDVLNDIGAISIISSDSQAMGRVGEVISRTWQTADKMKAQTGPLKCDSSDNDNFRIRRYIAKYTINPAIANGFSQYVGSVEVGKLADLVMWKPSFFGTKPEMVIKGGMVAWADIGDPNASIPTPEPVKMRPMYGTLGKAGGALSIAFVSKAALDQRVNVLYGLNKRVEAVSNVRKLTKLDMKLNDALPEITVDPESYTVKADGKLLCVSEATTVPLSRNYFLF
T2 sequence (P69996 whole entry): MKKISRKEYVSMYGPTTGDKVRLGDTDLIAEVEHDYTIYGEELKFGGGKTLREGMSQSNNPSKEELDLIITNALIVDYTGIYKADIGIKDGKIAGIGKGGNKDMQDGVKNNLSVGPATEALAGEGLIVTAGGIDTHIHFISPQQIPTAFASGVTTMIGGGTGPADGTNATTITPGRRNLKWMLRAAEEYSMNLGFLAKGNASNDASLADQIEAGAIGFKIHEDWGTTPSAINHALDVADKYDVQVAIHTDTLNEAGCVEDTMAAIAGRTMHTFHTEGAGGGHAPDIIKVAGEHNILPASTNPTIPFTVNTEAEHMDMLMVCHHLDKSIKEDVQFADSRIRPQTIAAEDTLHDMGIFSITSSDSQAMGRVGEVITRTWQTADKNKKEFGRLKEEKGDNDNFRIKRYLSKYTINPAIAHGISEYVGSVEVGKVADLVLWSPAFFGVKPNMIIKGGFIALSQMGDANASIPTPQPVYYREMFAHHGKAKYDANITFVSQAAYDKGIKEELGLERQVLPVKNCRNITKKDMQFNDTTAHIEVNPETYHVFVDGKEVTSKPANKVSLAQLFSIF
T2 sequence (P14916 whole entry partner): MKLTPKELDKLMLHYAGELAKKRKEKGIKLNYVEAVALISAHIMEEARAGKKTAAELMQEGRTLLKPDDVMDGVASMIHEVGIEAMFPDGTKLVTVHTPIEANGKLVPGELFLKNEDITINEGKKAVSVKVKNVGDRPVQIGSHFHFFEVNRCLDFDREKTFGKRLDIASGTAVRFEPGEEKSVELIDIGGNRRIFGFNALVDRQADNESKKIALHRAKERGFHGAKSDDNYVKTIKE
Sequence of human CSE (hCSE) (P32929 whole entry): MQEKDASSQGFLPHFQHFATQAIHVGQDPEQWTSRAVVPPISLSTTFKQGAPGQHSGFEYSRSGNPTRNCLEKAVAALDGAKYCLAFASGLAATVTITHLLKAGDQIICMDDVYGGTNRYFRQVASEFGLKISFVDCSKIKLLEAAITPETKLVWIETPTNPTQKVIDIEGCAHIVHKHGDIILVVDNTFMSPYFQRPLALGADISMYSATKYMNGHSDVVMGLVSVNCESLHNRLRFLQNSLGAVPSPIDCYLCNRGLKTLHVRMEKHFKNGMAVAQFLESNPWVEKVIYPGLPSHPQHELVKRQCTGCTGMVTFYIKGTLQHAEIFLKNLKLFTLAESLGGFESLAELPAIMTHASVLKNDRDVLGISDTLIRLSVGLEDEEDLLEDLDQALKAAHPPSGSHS

`O=C1c2ccccc2[Se](=O)N1c1ccccc1` (stereo not shown) [Ebselen oxide]: the IC50 (commonly the midpoint of a concentration-inhibition curve) was found to be 3.3 ± 0.1 µM in the assay on O. anthropi urease (OAU), 0.4 ± 0.005 µM against jack bean urease (JBU) [2], 23.2 ± 1.1 µM at H. pylori urease (HPU) [3] and 1.5 ± 0.2 µM at H. pylori urease (HPU) [5]. In addition, the MIC was found to be 4 µg/mL (≈ 13.8 µM) in the assay on H. pylori [1] and 12.5 µM (≈ 3.63 µg/mL) in the assay with H. pylori [4].
As to `Cc1ncc([N+](=O)[O-])n1CCO` [Metronidazole], the values for the MIC in the assay with H. pylori [1] and in the assay with H. pylori [4] were more than 512 µg/mL and more than 3000 µM, respectively.
For `CCS(=O)(=O)CCn1c([N+](=O)[O-])cnc1C` [Tinidazole], in that order: more than 512 µg/mL and more than 2000 µM.
On to `CN(C)Cc1c(C(=O)NCCOc2ccc(C(=O)NO)cc2)oc2ccccc12` [abexinostat], for which the concentration for half-maximal inhibition (IC50) was 1.4 ± 0.3 µM on jack bean urease (JBU) [2] and 1.3 ± 0.2 µM on H. pylori urease (HPU) [5].
Consider `CC(=O)NO` [acetohydroxamic acid], for which the IC50 at human CBS (hCBS) was more than 200 µM; in the assay with O. anthropi urease (OAU), 2.8 ± 0.9 µM; on jack bean urease (JBU) [2] it was 162 ± 13.4 µM; against human CSE (hCSE) it was more than 200 µM; against H. pylori urease (HPU) [5], 25.9 ± 1.2 µM. The MIC in the assay with H. pylori [1] is more than 16 µg/mL. Besides, the inhibitory constant (Ki) – broadly, the dissociation constant of the complex between target and ligand, obtained from inhibition or displacement – on jack bean urease (JBU) [6] was 2.1 ± 0.8 µM.
In the case of `O=C(/C=C/c1cccc(S(=O)(=O)Nc2ccccc2)c1)NO` [belinostat], the IC50 is 4.7 ± 0.5 µM against jack bean urease (JBU) [2] and 3.2 ± 0.2 µM against H. pylori urease (HPU) [5].
In the case of `COc1ccc2c(=O)n(-c3ccccc3)[se]c2c1` [compound 1, 2-Phenyl-6-methoxybenzoisoselen-3-one], the IC50 in the assay with O. anthropi urease (OAU) was 7.5 ± 0.6 µM; at jack bean urease (JBU) [2] (setting [9]) it was 0.3 ± 0.007 µM; against H. pylori urease (HPU) [5] (setting [9]) it was 2 ± 0.9 µM.
With `COc1ccc2c(=O)n(-c3ccccc3)[se]c2c1` [compound 1], the figures for the MIC in the assay with H. pylori [1] and in the assay on H. pylori [4] were 2 µg/mL (≈ 6.57 µM) and 6.25 µM (≈ 1.9 µg/mL), respectively.
In the case of `O=c1[nH][se]c2ccccc12` [compound 4, Benzisoselenol-3-one], the concentration for half-maximal inhibition (IC50) came out at 2.2 ± 0.1 µM in the assay on O. anthropi urease (OAU), 0.8 ± 0.008 µM on jack bean urease (JBU) [2] and 1.1 ± 0.08 µM on H. pylori urease (HPU) [5].
Turning to `O=c1[nH][se]c2ccccc12` [compound 4], the figures for the MIC in the assay with H. pylori [1] and in the assay with H. pylori [4] were 2 µg/mL (≈ 10.1 µM) and 12.5 µM (≈ 2.48 µg/mL), respectively. The compound further had an IC50 on H. pylori urease (HPU) [3] of 18.5 ± 1.2 µM.
As to `CCCn1[se]c2ccccc2c1=O` [compound 5, 2-Propyl-benzisoselenol-3-one], the values for the 50% inhibitory concentration (IC50) in the assay with O. anthropi urease (OAU), against jack bean urease (JBU) [2] and at H. pylori urease (HPU) [5] were 5.3 ± 0.9 µM, 1.4 ± 0.03 µM and more than 10 µM, respectively.
Consider `CSn1[se]c2ccccc2c1=O` [compound 6, 2-Methylthio-benzisoseleno-3-one], for which the IC50 in the assay on O. anthropi urease (OAU) came out at 1.7 ± 0.1 µM; on jack bean urease (JBU) [2] (setting [9]), 0.3 ± 0.04 µM; against H. pylori urease (HPU) [5] (setting [9]) it was 1.3 ± 0.4 µM.
With `c1ccc(C[Se][Se]Cc2ccccc2)cc1` [dibenzyl diselenide], the MIC in the assay with H. pylori [1] is more than 64 µg/mL; in the assay on H. pylori [4] it was more than 200 µM.
Consider `CCN(CC)C(=S)SSC(=S)N(CC)CC` [disulfiram], for which the 50% inhibitory concentration (IC50) against human CBS (hCBS) is more than 200 µM; with O. anthropi urease (OAU), 35 ± 0.1 µM; at jack bean urease (JBU) [2], 38.9 ± 2.7 µM; against H. pylori urease (HPU) [3], 36.3 ± 1 µM; at human CSE (hCSE), more than 200 µM; on H. pylori urease (HPU) [5] it was 8.9 ± 1.5 µM. Also, the figures for the MIC in the assay on H. pylori [1] and with H. pylori [4] were 4 µg/mL (≈ 13.5 µM) and 12.5 µM (≈ 3.71 µg/mL), respectively.
For `O=c1c2ccccc2[se]n1-c1ccccc1` [ebselen], on jack bean urease (JBU) [7], the Kd (in general, the concentration at which binding is half-saturated) was 0.089 ± 0.005 µM. In addition, the IC50 against human CBS (hCBS) was more than 200 µM; in the assay on O. anthropi urease (OAU), 3 ± 1 µM; on jack bean urease (JBU) [2], 0.4 ± 0.07 µM; at H. pylori urease (HPU) [3] it was 5.7 ± 1.3 µM; against human CSE (hCSE), 44.3 ± 1.3 µM; against H. pylori urease (HPU) [5], 2.8 ± 0.5 µM. Also, the MIC in the assay with H. pylori [1] amounted to 4 µg/mL (≈ 14.6 µM); in the assay with H. pylori [4], 12.5 µM (≈ 3.43 µg/mL). The compound also returned a αKi on jack bean urease (JBU) [8] of 0.8 ± 0.2 µM.
Take `NO` [hydroxylamine]: the IC50 at jack bean urease (JBU) [2] and against H. pylori urease (HPU) [5] was more than 20 µM throughout.
In the case of `CNC(=O)[C@H](Cc1c[nH]c2ccccc12)NC(=O)[C@@H](CC(=O)NO)CC(C)C` [ilomastat], the concentration for half-maximal inhibition (IC50) at jack bean urease (JBU) [2] and against H. pylori urease (HPU) [5] was more than 20 µM in each case.
As to `Cc1[nH]c2ccccc2c1CCNCc1ccc(/C=C/C(=O)NO)cc1` [panobinostat], binding at jack bean urease (JBU) [7] was put at a Kd of 8.9 ± 0.4 µM. Besides, the IC50 against human CBS (hCBS) is more than 200 µM; in the assay with O. anthropi urease (OAU) it was 0.07 ± 0.006 µM; against jack bean urease (JBU) [2], 0.2 ± 0.006 µM; against human CSE (hCSE), more than 200 µM; against H. pylori urease (HPU) [5], 0.1 ± 0.01 µM. The same compound registered a Ki on jack bean urease (JBU) [6] of 0.02 ± 0.01 µM.
Regarding `O=C(CCCCCCNC(=O)c1cnc(N(c2ccccc2)c2ccccc2)nc1)NO` [ricolinostat], the IC50 at jack bean urease (JBU) [2] and against H. pylori urease (HPU) [5] was more than 20 µM throughout.
On to `O=C(CCCCCCC(=O)Nc1ccccc1)NO` [vorinostat], for which the IC50 against jack bean urease (JBU) [2] was determined as 4.1 ± 1.9 µM; against H. pylori urease (HPU) [5], 14 ± 3.9 µM.

The values above are taken from publication doi:10.1101/2021.01.05.425432v2 (biorxiv, 2021).
